Activity calls are given as the source filed them. Where only a bound is given, the exact number is not on record here.

Data set [1] has as its target hERG (KCNH2) (Homo sapiens, UniProt Q12809). Description: Inhibition of human ERG at 10 uM.
A short description of data set [2]: Potentiation of NMDA receptor-induced current in hippocampal CA1 pyramidal cells at 30 uM. The conditions noted are these: Hippocampus. Type of data set: tissue-based.
Data set [3] relates to Plasma. Description: Fraction unbound in rat plasma. Type of data set: ADME, cell-free.
The target in data set [4] is Cytochrome P450 2C9 (Homo sapiens, UniProt P11712). Nature of the data set: Inhibition of CYP2C9. The data set is classed as ADME.
Sequence of Cytochrome P450 2C9 (P11712 whole entry): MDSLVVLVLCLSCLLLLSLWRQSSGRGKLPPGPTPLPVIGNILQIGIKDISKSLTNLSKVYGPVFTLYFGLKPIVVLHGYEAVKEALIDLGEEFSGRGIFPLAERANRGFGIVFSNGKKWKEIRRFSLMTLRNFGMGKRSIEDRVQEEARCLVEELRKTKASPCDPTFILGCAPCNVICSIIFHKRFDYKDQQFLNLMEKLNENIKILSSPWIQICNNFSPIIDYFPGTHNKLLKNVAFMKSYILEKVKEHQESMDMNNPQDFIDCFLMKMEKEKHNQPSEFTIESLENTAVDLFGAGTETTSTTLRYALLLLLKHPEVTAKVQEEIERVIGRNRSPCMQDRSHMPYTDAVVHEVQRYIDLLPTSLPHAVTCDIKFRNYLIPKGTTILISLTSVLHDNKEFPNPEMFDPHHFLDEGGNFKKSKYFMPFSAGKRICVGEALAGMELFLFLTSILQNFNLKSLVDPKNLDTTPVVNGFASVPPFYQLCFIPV
The target of data set [5] is T1, Cytochrome P450 1A2 (Homo sapiens, UniProt P05177).
T1 sequence (P05177 whole entry): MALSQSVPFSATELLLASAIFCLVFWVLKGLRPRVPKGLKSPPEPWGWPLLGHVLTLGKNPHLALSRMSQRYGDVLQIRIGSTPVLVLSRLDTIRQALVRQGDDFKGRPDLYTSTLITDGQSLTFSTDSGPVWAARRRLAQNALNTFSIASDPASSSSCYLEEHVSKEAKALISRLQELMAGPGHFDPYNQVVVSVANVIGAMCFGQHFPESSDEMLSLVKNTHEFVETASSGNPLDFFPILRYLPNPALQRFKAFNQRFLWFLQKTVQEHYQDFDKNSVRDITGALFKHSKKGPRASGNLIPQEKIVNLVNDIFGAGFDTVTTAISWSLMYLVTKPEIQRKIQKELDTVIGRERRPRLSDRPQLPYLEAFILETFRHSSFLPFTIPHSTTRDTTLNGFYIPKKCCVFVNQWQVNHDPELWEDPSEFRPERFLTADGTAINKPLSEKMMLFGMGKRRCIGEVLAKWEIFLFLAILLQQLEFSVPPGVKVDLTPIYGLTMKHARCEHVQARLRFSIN
Description: Inhibition of CYP1A2. Type of data set: ADME.

Data set [6] addresses Cytochrome P450 2D6 (Homo sapiens, UniProt P10635). Description: Inhibition of CYP2D6. The data set is classed as ADME.
The nature of data set [7]: Clearance in rat at 1 mg/kg, iv and 10 mg/kg, po. Type of data set: ADME, organism-based. As to conditions: in vivo.
A short description of data set [8]: Volume of distribution at steady state in rat 1 mg/kg, iv and 10 mg/kg, po. Type of data set: ADME, organism-based. The conditions noted are these: in vivo, read-out: Vdss.
The nature of data set [9]: Half life in rat 1 mg/kg, iv and 10 mg/kg, po. The data set is classed as ADME, organism-based. The conditions noted are these: in vivo.
Data set [10] has as its system Rattus norvegicus. Description: Oral bioavailability in rat 10 mg/kg. Type of data set: ADME, organism-based. As to conditions: in vivo.
Data set [11] is described as follows: Plasma concentration in Sprague-Dawley rat at 10 mg/kg, po after 90 mins. Type of data set: ADME, organism-based. More on the design: dose 10 mg/kg, route oral.
Data set [12] can be described thus: Drug uptake in Sprague-Dawley rat brain at 10 mg/kg, po after 90 mins. The data set is classed as ADME, organism-based. Details: dose 10 mg/kg, route oral. The conditions noted are these: read-out: Drug uptake.
Data set [13] can be described thus: Ratio of AUC in brain to AUC in blood in Sprague-Dawley rat at 10 mg/kg, po after 90 mins. The data set is classed as ADME, organism-based. More on the design: dose 10 mg/kg, route oral. As to conditions: read-out: BPR.

Sequence of Cytochrome P450 2D6 (P10635 whole entry): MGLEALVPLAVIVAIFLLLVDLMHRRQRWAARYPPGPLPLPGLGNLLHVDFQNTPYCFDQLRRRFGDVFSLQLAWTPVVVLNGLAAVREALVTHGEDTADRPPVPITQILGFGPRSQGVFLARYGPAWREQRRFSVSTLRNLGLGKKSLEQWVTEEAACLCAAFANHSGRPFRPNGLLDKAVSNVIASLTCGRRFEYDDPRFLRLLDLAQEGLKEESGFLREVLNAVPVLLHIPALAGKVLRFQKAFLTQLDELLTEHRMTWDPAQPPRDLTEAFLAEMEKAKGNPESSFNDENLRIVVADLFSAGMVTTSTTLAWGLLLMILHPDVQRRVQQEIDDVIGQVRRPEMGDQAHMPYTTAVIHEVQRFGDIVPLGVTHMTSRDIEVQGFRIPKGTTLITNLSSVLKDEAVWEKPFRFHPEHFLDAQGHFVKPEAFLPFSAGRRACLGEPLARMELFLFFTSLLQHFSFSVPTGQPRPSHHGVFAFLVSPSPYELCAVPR
Sequence of hERG (KCNH2) (Q12809 whole entry): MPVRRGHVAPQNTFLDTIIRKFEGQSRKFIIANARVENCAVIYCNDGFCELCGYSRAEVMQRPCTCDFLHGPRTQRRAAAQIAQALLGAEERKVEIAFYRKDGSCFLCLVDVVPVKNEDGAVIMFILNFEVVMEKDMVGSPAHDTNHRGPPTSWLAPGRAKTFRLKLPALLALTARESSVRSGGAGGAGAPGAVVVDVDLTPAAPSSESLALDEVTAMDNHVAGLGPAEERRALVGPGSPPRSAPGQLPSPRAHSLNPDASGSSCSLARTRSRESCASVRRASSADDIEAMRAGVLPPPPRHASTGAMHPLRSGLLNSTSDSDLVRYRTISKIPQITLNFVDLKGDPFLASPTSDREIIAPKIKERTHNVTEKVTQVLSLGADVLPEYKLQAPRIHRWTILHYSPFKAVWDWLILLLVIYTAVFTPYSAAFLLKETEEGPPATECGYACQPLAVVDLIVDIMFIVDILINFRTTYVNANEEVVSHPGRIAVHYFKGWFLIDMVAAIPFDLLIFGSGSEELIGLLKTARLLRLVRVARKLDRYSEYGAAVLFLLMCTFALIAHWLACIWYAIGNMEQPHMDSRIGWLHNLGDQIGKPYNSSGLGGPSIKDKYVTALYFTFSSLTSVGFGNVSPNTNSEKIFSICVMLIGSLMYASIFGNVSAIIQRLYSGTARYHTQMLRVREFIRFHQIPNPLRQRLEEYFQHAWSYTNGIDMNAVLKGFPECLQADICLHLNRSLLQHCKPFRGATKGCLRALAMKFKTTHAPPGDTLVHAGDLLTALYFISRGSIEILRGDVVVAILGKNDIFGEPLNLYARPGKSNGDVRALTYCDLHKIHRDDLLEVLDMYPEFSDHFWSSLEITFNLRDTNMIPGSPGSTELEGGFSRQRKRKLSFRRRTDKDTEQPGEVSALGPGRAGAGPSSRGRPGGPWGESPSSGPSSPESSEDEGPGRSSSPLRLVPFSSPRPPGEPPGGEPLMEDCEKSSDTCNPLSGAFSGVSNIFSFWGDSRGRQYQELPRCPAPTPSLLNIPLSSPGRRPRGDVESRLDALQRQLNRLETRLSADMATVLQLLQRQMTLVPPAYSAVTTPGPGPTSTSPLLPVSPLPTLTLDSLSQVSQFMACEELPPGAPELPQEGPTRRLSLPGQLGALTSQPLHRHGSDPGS

In the case of `CCOC(=O)N1CCC(N2CCC[C@@H](NC(=O)c3ccccc3C)C2)CC1`, in data set [1], the inhibition (as a rule, the share of the control response that was lost under treatment) at 10 µM turned out to be 22%. For the same molecule, the outcome in [2] was Active. Also, in [3], the Fu turned out to be 14.9%. The IC50 in [4], in data set [5] and in data set [6] was more than 25 µM in each case. In data set [7], this molecule gave a clearance of 14.7 mL/min/kg. In data set [8], the Vd is 0.98 L/kg. Moreover, the half-life (usually the time needed for the level to fall by half in the phase considered) in [9] was determined as 46 min. The molecule also returned a F in data set [10] of 37%. The concentration at 1.5 h in data set [11] came to 1450 nM; in [12] it was 1890 nM. The Kp at 1.5 h in data set [13] came out at 1.35.
